Measured values as given in the NIST ThermoML archive (doi:10.1016/j.jct.2011.08.016).

Assay: xn = mol fraction of the nth substance listed
Details: Liquid, Vibrating tube method

CCCCCCCCCC [decane] + CCCCCCC
Details | mass density [kg/m3]
333.12 K, 4000 kPa, x2 = 0.0531 | 701.18
333.12 K, 4000 kPa, x2 = 0.777 | 668.42
333.12 K, 5000 kPa, x2 = 0.0531 | 702.16
333.12 K, 5000 kPa, x2 = 0.777 | 669.49
333.12 K, 6000 kPa, x2 = 0.0531 | 703.1
333.12 K, 6000 kPa, x2 = 0.777 | 670.55
333.12 K, 7000 kPa, x2 = 0.0531 | 704.05
333.12 K, 7000 kPa, x2 = 0.777 | 671.62
333.12 K, 8000 kPa, x2 = 0.0531 | 704.99
333.12 K, 8000 kPa, x2 = 0.777 | 672.68
333.12 K, 9000 kPa, x2 = 0.0531 | 705.9
333.12 K, 9000 kPa, x2 = 0.777 | 673.73
333.12 K, 10000 kPa, x2 = 0.0531 | 706.8
333.12 K, 10000 kPa, x2 = 0.777 | 674.77
333.12 K, 10990 kPa, x2 = 0.0531 | 707.69
333.12 K, 10990 kPa, x2 = 0.777 | 675.8
333.12 K, 12000 kPa, x2 = 0.0531 | 708.56
333.12 K, 12000 kPa, x2 = 0.777 | 676.81
333.12 K, 13000 kPa, x2 = 0.0531 | 709.43
333.12 K, 13000 kPa, x2 = 0.777 | 677.81
333.12 K, 14000 kPa, x2 = 0.0531 | 710.28
333.12 K, 14000 kPa, x2 = 0.777 | 678.79
333.12 K, 15000 kPa, x2 = 0.0531 | 711.14
333.12 K, 15000 kPa, x2 = 0.777 | 679.76
333.12 K, 16000 kPa, x2 = 0.0531 | 711.96
333.12 K, 16000 kPa, x2 = 0.777 | 680.71
333.12 K, 17000 kPa, x2 = 0.0531 | 712.79
333.12 K, 17000 kPa, x2 = 0.777 | 681.65
333.12 K, 18000 kPa, x2 = 0.0531 | 713.6
333.12 K, 18000 kPa, x2 = 0.777 | 682.58
333.12 K, 19000 kPa, x2 = 0.0531 | 714.39
333.12 K, 19000 kPa, x2 = 0.777 | 683.49
333.12 K, 20000 kPa, x2 = 0.0531 | 715.18
333.12 K, 20000 kPa, x2 = 0.777 | 684.39
333.12 K, 21000 kPa, x2 = 0.0531 | 715.96
333.12 K, 21000 kPa, x2 = 0.777 | 685.27
333.12 K, 22000 kPa, x2 = 0.0531 | 716.72
333.12 K, 22000 kPa, x2 = 0.777 | 686.1
333.12 K, 23000 kPa, x2 = 0.0531 | 717.46
333.12 K, 23000 kPa, x2 = 0.777 | 686.9
333.12 K, 24000 kPa, x2 = 0.0531 | 718.21
333.12 K, 24000 kPa, x2 = 0.777 | 687.68
333.12 K, 25000 kPa, x2 = 0.0531 | 718.95
333.12 K, 25000 kPa, x2 = 0.777 | 688.47
333.13 K, 1000 kPa, x2 = 0.952 | 653.95
333.13 K, 2000 kPa, x2 = 0.952 | 655.14
333.13 K, 3000 kPa, x2 = 0.952 | 656.33
333.13 K, 4000 kPa, x2 = 0.952 | 657.51
333.13 K, 5000 kPa, x2 = 0.952 | 658.67
333.13 K, 6000 kPa, x2 = 0.952 | 659.82
333.13 K, 7000 kPa, x2 = 0.952 | 660.95
333.13 K, 8000 kPa, x2 = 0.952 | 662.06
333.13 K, 9000 kPa, x2 = 0.952 | 663.16
333.13 K, 10000 kPa, x2 = 0.952 | 664.24
333.13 K, 10990 kPa, x2 = 0.952 | 665.3
333.13 K, 12000 kPa, x2 = 0.952 | 666.34
333.13 K, 13000 kPa, x2 = 0.952 | 667.37
333.13 K, 14000 kPa, x2 = 0.952 | 668.38
333.13 K, 15000 kPa, x2 = 0.952 | 669.39
333.13 K, 16000 kPa, x2 = 0.952 | 670.37
333.13 K, 17000 kPa, x2 = 0.952 | 671.33
333.13 K, 18000 kPa, x2 = 0.952 | 672.29
333.13 K, 19000 kPa, x2 = 0.952 | 673.23
333.13 K, 20000 kPa, x2 = 0.952 | 674.14
333.13 K, 21000 kPa, x2 = 0.952 | 675.04
333.13 K, 22000 kPa, x2 = 0.952 | 675.93
333.13 K, 23000 kPa, x2 = 0.952 | 676.79
333.13 K, 24000 kPa, x2 = 0.952 | 677.64
333.13 K, 25000 kPa, x2 = 0.952 | 678.45
333.14 K, 1000 kPa, x2 = 0.2594 | 690.74
333.14 K, 2000 kPa, x2 = 0.2594 | 691.66
333.14 K, 3000 kPa, x2 = 0.2594 | 692.62
333.14 K, 4000 kPa, x2 = 0.2594 | 693.57
333.14 K, 5000 kPa, x2 = 0.2594 | 694.49
333.14 K, 6000 kPa, x2 = 0.2594 | 695.43
333.14 K, 7000 kPa, x2 = 0.2594 | 696.4
333.14 K, 8000 kPa, x2 = 0.2594 | 697.34
333.14 K, 9000 kPa, x2 = 0.2594 | 698.3
333.14 K, 10000 kPa, x2 = 0.2594 | 699.23
333.14 K, 10990 kPa, x2 = 0.2594 | 700.16
333.14 K, 12000 kPa, x2 = 0.2594 | 701.08
333.14 K, 13000 kPa, x2 = 0.2594 | 701.98
333.14 K, 14000 kPa, x2 = 0.2594 | 702.87
333.14 K, 15000 kPa, x2 = 0.2594 | 703.75
333.14 K, 16000 kPa, x2 = 0.2594 | 704.61
333.14 K, 17000 kPa, x2 = 0.2594 | 705.47
333.14 K, 18000 kPa, x2 = 0.2594 | 706.33
333.14 K, 19000 kPa, x2 = 0.2594 | 707.13
333.14 K, 20000 kPa, x2 = 0.2594 | 707.94
333.14 K, 21000 kPa, x2 = 0.2594 | 708.75
333.14 K, 22000 kPa, x2 = 0.2594 | 709.53
333.14 K, 23000 kPa, x2 = 0.2594 | 710.3
333.14 K, 24000 kPa, x2 = 0.2594 | 711.03
333.14 K, 25000 kPa, x2 = 0.2594 | 711.74
